# Paper PMC9786881 (Viruses, 2022)
# Molecular target: RABV NΔ23^0 (nucleoprotein aa 24-450) (Rabies virus, UniProt Q8JXF6)
# Type: binding, rabies virus (strain CVS-11)
smiles,measurement,value
CC[C@H](C)[C@H](NC(=O)[C@H](C)NC(=O)[C@H](CO)NC(=O)[C@@H]1CCCN1C(=O)[C@H](CC(N)=O)NC(=O)[C@@H](NC(=O)[C@H](Cc1ccccc1)NC(=O)[C@@H](NC(=O)[C@H](CCCCN)NC(=O)[C@H](CO)NC(=O)[C@H](CCSC)NC(=O)[C@H](CO)NC(=O)[C@H](C)NC(=O)CN)[C@@H](C)CC)C(C)C)C(=O)N[C@@H](CCCNC(=N)N)C(=O)N[C@@H](C)C(=O)NCC(=O)N[C@@H](CC(C)C)C(=O)N[C@@H](C)C(=O)N[C@@H](CC(=O)O)C(=O)N[C@@H](CC(C)C)C(=O)N[C@@H](CCC(=O)O)C(=O)N[C@@H](CCSC)C(=O)N[C@@H](C)C(=O)N[C@@H](CCC(=O)O)C(=O)N[C@@H](CCC(=O)O)C(=O)N[C@H](C(=O)N[C@H](C(=O)N[C@@H](CC(=O)O)C(=O)N[C@@H](CC(C)C)C(=O)N[C@H](C(=O)N[C@@H](CC(N)=O)C(=O)N[C@@H](CCCNC(=N)N)C(=O)N[C@@H](CC(N)=O)C(=O)N[C@H](C(=O)N[C@@H](CCC(=O)O)C(=O)N[C@@H](CC(=O)O)C(=O)N[C@@H](CC(N)=O)C(=O)N[C@@H](CCC(N)=O)C(=O)N[C@@H](C)C(=O)N[C@@H](Cc1c[nH]cn1)C(=O)N[C@@H](CC(C)C)C(=O)N[C@@H](CCC(N)=O)C(=O)N[C@@H](CSC1CC(=O)N(CCNC(=O)c2ccc3c(c2)C(=O)OC32c3ccc(O)cc3Oc3cc(O)ccc32)C1=O)C(=O)N[C@@H](CCC(=O)O)C(=O)O)[C@@H](C)CC)[C@@H](C)CC)C(C)C)[C@@H](C)O (stereo partly shown) [P42-G41C*],half time of dissociation,256 min
